The source of these data is ChEMBL document CHEMBL4038275, “t-Butyl pyridine and phenyl C-region analogues of 2-(3-fluoro-4-methylsulfonylaminophenyl)propanamides as potent TRPV1 antagonists” (Bioorg Med Chem, 2017).

Experiment [1] deals with Transient receptor potential cation channel subfamily V member 1 (Homo sapiens, UniProt Q8NER1). Description: Antagonist activity at human TRPV1 expressed in CHOK1 cells assessed as inhibition of capsaicin induced calcium influx pretreated for 6 mins followed by capsaicin addition by Fluo-4/Pluronic F127 probe based FLIPR method. The format is cell-based.
Transient receptor potential cation channel subfamily V member 1, sequence (Q8NER1 whole entry): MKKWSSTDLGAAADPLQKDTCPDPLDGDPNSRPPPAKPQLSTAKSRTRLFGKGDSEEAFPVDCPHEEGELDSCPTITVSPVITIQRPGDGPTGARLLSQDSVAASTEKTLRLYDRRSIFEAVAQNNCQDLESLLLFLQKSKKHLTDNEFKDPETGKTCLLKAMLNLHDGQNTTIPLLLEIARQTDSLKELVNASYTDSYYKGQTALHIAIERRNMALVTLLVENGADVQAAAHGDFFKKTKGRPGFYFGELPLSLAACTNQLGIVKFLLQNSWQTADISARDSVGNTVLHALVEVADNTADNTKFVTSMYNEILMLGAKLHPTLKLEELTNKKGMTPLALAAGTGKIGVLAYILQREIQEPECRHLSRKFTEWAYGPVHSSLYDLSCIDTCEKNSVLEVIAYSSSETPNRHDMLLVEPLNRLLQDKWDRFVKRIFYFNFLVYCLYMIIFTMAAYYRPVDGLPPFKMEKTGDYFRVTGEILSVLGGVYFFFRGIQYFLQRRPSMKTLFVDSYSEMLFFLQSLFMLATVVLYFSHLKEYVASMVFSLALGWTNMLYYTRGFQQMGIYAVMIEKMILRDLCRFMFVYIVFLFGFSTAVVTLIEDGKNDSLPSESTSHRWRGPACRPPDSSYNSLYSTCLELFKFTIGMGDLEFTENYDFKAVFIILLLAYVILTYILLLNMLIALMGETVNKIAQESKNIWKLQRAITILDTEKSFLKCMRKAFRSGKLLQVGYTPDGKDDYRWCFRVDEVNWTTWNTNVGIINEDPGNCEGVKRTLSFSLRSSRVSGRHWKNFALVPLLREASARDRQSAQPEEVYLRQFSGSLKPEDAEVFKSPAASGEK
The test system of experiment [2] is Mus musculus. The experiment can be described thus: Analgesic activity in mouse assessed as reduction in capsaicin induced hypothermia at 10 mg/kg, po relative to control. The format is functional.
Experiment [3] deals with Mus musculus. Description: Analgesic activity in mouse assessed as reduction in capsaicin induced hypothermia at 3 mg/kg, po relative to control. The format is functional.
Experiment [4] concerns Mus musculus. The experiment can be described thus: Analgesic activity in Bennett mouse model of neuropathic pain assessed as reduction in chronic constriction injury-induced cold allodynia at 10 mg/kg, po relative to control. The format is functional.
Experiment [5] deals with Mus musculus. The experiment can be described thus: Analgesic activity in Bennett mouse model of neuropathic pain assessed as reduction in chronic constriction injury-induced cold allodynia at 3 mg/kg, po relative to control. The format is functional.
Experiment [6] deals with Mus musculus. Description: Analgesic activity in po dosed Bennett mouse model of neuropathic pain assessed as reduction in chronic constriction injury-induced cold allodynia. The format is functional, organism-based.

SMILES strings stand for the structures. Calls of active or inactive are those of the source. The rule behind the calls is not given here.

With `CC(C(=O)NCc1ccc(C(C)(C)C)cc1N1CCN(c2ccccc2)CC1)c1ccc(NS(C)(=O)=O)c(F)c1` (stereo not drawn), in experiment [1], the Ki came to 0.8 nM.
Same read-out and setting: the result for `C[C@@H](C(=O)NCc1ccc(C(C)(C)C)cc1SC1CCCCC1)c1ccc(NS(C)(=O)=O)c(F)c1` reads 89.2 nM.
As for `CC(C(=O)NCc1ccc(C(C)(C)C)nc1SC1CCCC1)c1ccc(NS(C)(=O)=O)c(F)c1` (stereo not drawn), the Ki in experiment [1] was determined as 2.5 nM.
On the same count and under the same terms, the result for `COc1ccc(CSc2nc(C(C)(C)C)ccc2CNC(=O)C(C)c2ccc(NS(C)(=O)=O)c(F)c2)cc1` (stereo not drawn) reads 3.5 nM; that for `CCCCCCOc1cc(C(C)(C)C)ccc1CNC(=O)C(C)c1ccc(NS(C)(=O)=O)c(F)c1` (stereo not drawn), 0.5 nM.
`C[C@H](C(=O)NCc1ccc(C(C)(C)C)nc1SC1CCCCC1)c1ccc(NS(C)(=O)=O)c(F)c1`: the MPE with Mus musculus [2] was 15%; in the experiment on Mus musculus [3] it was 46%; in the experiment with Mus musculus [5], 50%. Further, the result in the experiment on Mus musculus [4] was Active. Also, the Ki in experiment [1] stood at 3.4 nM.
With `CCCCSc1nc(C(C)(C)C)ccc1CNC(=O)C(C)c1ccc(NS(C)(=O)=O)c(F)c1` (stereo not drawn), the Ki in experiment [1] stood at 3.2 nM.
Still for that read-out and setting: the result for `CC(C)CCOc1cc(C(C)(C)C)ccc1CNC(=O)C(C)c1ccc(NS(C)(=O)=O)c(F)c1` (stereo not drawn) reads 0.6 nM; that for `CC(C(=O)NCc1ccc(C(C)(C)C)cc1N1CCCC1)c1ccc(NS(C)(=O)=O)c(F)c1` (stereo not drawn), 8.1 nM; that for `CCC1CCN(c2nc(C(C)(C)C)ccc2CNC(=O)C(C)c2ccc(NS(C)(=O)=O)c(F)c2)CC1` (stereo not drawn), 0.1 nM.
The same measure, in the same setting: the result for `C[C@@H](C(=O)NCc1ccc(C(C)(C)C)nc1SC1CCCCC1)c1ccc(NS(C)(=O)=O)c(F)c1` reads 36.4 nM; that for `CC(C(=O)NCc1ccc(C(C)(C)C)nc1SCCCN(C)C)c1ccc(NS(C)(=O)=O)c(F)c1` (stereo not drawn), 51.8 nM; that for `CCCCCc1cc(C(C)(C)C)ccc1CNC(=O)C(C)c1ccc(NS(C)(=O)=O)c(F)c1` (stereo not drawn), 2.8 nM.
Still for that read-out and setting: the result for `CCCCN(C)c1nc(C(C)(C)C)ccc1CNC(=O)C(C)c1ccc(NS(C)(=O)=O)c(F)c1` (stereo not drawn) reads 1.2 nM; that for `CC(C(=O)NCc1ccc(C(C)(C)C)nc1OCc1ccc(F)cc1)c1ccc(NS(C)(=O)=O)c(F)c1` (stereo not drawn), 0.8 nM.
`CC(C(=O)NCc1ccc(C(C)(C)C)nc1N1CCC(Cc2ccccc2)CC1)c1ccc(NS(C)(=O)=O)c(F)c1` (stereo not drawn): the Ki in experiment [1] worked out at 0.3 nM.
Still for that read-out and setting: the result for `COc1cccc(COc2nc(C(C)(C)C)ccc2CNC(=O)C(C)c2ccc(NS(C)(=O)=O)c(F)c2)c1` (stereo not drawn) reads 6 nM; that for `CC(C(=O)NCc1ccc(C(C)(C)C)nc1N1CCCCC1)c1ccc(NS(C)(=O)=O)c(F)c1` (stereo not drawn), 1.1 nM.
Consider `C[C@H](C(=O)NCc1ccc(C(C)(C)C)cc1SC1CCCCC1)c1ccc(NS(C)(=O)=O)c(F)c1`, for which the Activity result with Mus musculus [6] is “Dose-dependent effect”. Moreover, the MPE in the experiment with Mus musculus [4] amounted to 83%. Moreover, the Ki in experiment [1] worked out at 6 nM.
For `CC(C(=O)NCc1ccc(C(C)(C)C)cc1OCc1ccc(F)cc1)c1ccc(NS(C)(=O)=O)c(F)c1` (stereo not drawn), the Ki in experiment [1] amounted to 3.8 nM.
The same measure, in the same setting: the result for `CC(C(=O)NCc1ccc(C(C)(C)C)nc1C1CCCCC1)c1ccc(NS(C)(=O)=O)c(F)c1` (stereo not drawn) reads 3.1 nM.
For `CCCCN(C)c1cc(C(C)(C)C)ccc1CNC(=O)C(C)c1ccc(NS(C)(=O)=O)c(F)c1` (stereo not drawn), the Ki in experiment [1] came to 1 nM.
Still for that read-out and setting: the result for `CCCCCCSc1nc(C(C)(C)C)ccc1CNC(=O)C(C)c1ccc(NS(C)(=O)=O)c(F)c1` (stereo not drawn) reads 1.5 nM; that for `CC(C(=O)NCc1ccc(C(C)(C)C)nc1SC1CCCCC1)c1ccc(NS(C)(=O)=O)c(F)c1` (stereo not drawn), 8.5 nM; that for `CC(C(=O)NCc1ccc(C(C)(C)C)nc1-c1ccc(F)cc1)c1ccc(NS(C)(=O)=O)c(F)c1` (stereo not drawn), 0.3 nM.
For `CC(C(=O)NCc1ccc(C(C)(C)C)nc1SCCCN1CCCC1)c1ccc(NS(C)(=O)=O)c(F)c1` (stereo not drawn), the Ki in experiment [1] was 17.1 nM.
Turning to `CC(C(=O)NCc1ccc(C(C)(C)C)nc1SCc1ccccc1)c1ccc(NS(C)(=O)=O)c(F)c1` (stereo not drawn), in experiment [1], the Ki was found to be 4 nM.
With `CC(C(=O)NCc1ccc(C(C)(C)C)cc1C1CCCCC1)c1ccc(NS(C)(=O)=O)c(F)c1` (stereo not drawn), in experiment [1], the Ki came out at 9.8 nM.
Same read-out and setting: the result for `CCCCCc1nc(C(C)(C)C)ccc1CNC(=O)C(C)c1ccc(NS(C)(=O)=O)c(F)c1` (stereo not drawn) reads 1.9 nM; that for `CC(C(=O)NCc1ccc(C(C)(C)C)cc1OCc1ccccc1)c1ccc(NS(C)(=O)=O)c(F)c1` (stereo not drawn), 2.9 nM.
Regarding `CCCOc1cc(C(C)(C)C)ccc1CNC(=O)C(C)c1ccc(NS(C)(=O)=O)c(F)c1` (stereo not drawn), the Ki in experiment [1] was 4.4 nM.
Still for that read-out and setting: the result for `CC(C)CCSc1nc(C(C)(C)C)ccc1CNC(=O)C(C)c1ccc(NS(C)(=O)=O)c(F)c1` (stereo not drawn) reads 5.9 nM; that for `CCCCSc1cc(C(C)(C)C)ccc1CNC(=O)C(C)c1ccc(NS(C)(=O)=O)c(F)c1` (stereo not drawn), 6.7 nM.
The same measure, in the same setting: the result for `CC(C(=O)NCc1ccc(C(C)(C)C)nc1SCc1ccc(Cl)cc1)c1ccc(NS(C)(=O)=O)c(F)c1` (stereo not drawn) reads 3.4 nM; that for `CCCCCSc1nc(C(C)(C)C)ccc1CNC(=O)C(C)c1ccc(NS(C)(=O)=O)c(F)c1` (stereo not drawn), 3.1 nM.
Still for that read-out and setting: the result for `CC(C(=O)NCc1ccc(C(C)(C)C)cc1SC1CCCCC1)c1ccc(NS(C)(=O)=O)c(F)c1` (stereo not drawn) reads 7.4 nM; that for `CC(C(=O)NCc1ccc(C(C)(C)C)nc1SCC(F)(F)F)c1ccc(NS(C)(=O)=O)c(F)c1` (stereo not drawn), 4.1 nM.
Take `CC(C(=O)NCc1ccc(C(C)(C)C)nc1SCCCN1CCOCC1)c1ccc(NS(C)(=O)=O)c(F)c1` (stereo not drawn): the Ki in experiment [1] turned out to be 112 nM.
Same read-out and setting: the result for `CC(C(=O)NCc1ccc(C(C)(C)C)cc1N1CCCCCC1)c1ccc(NS(C)(=O)=O)c(F)c1` (stereo not drawn) reads 6.2 nM.
With `CC(C(=O)NCc1ccc(C(C)(C)C)nc1SCc1ccccc1Cl)c1ccc(NS(C)(=O)=O)c(F)c1` (stereo not drawn), the Ki in experiment [1] amounted to 3.8 nM.
As to `CC(C(=O)NCc1ccc(C(C)(C)C)cc1N1CCCCC1)c1ccc(NS(C)(=O)=O)c(F)c1` (stereo not drawn), in experiment [1], the Ki stood at 1.9 nM.
For the compound `CC1CCN(c2cc(C(C)(C)C)ccc2CNC(=O)C(C)c2ccc(NS(C)(=O)=O)c(F)c2)CC1` (stereo not drawn), the Ki in experiment [1] is 0.7 nM.
